Experiments:
Experiment in all cases: relative viability (nuclei count vs DMSO), 5 days (fraction); higher = more cells survive
IPA-3 + Luminespib = compound: C1=CC=C2C(=C1)C=CC(=C2SSC3=C(C=CC4=CC=CC=C43)O)O [IPA-3] + CCNC(=O)c1noc(-c2cc(C(C)C)c(O)cc2O)c1-c1ccc(CN2CCOCC2)cc1 [Luminespib] (partner 0.01 µM)
Outline: (§1)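 Relative viability was taken as the ratio of nuclei in treated wells to nuclei in vehicle wells. Lung cancer cell lines in 1536-well plates received compounds by pin tool one day after seeding, either one drug alone or a fixed anchor-drug dose plus five library-drug doses (not always all listed) in √10 steps. Nuclei were counted on 4× images after 5 days of treatment, and values are medians of duplicate plates.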

IPA-3 + Lapatinib = compound: C1=CC=C2C(=C1)C=CC(=C2SSC3=C(C=CC4=CC=CC=C43)O)O [IPA-3] + CS(=O)(=O)CCNCc1ccc(-c2ccc3ncnc(Nc4ccc(OCc5cccc(F)c5)c(Cl)c4)c3c2)o1 [Lapatinib] (partner 2 µM)
Outline: as §1

Doramapimod + Navitoclax = compound: Cc1ccc(-n2nc(C(C)(C)C)cc2NC(=O)Nc2ccc(OCCN3CCOCC3)c3ccccc23)cc1 [Doramapimod] + CC1(C)CCC(c2ccc(Cl)cc2)=C(CN2CCN(c3ccc(C(=O)NS(=O)(=O)c4ccc(N[C@H](CCN5CCOCC5)CSc5ccccc5)c(S(=O)(=O)C(F)(F)F)c4)cc3)CC2)C1 [Navitoclax] (partner 0.5 µM)
Outline: as §1

RAF265 + OSI-027 = compound: Cn1c(Nc2ccc(C(F)(F)F)cc2)nc2cc(Oc3ccnc(-c4ncc(C(F)(F)F)[nH]4)c3)ccc21 [RAF265] + COc1cccc2cc(-c3nc([C@H]4CC[C@H](C(=O)O)CC4)n4ncnc(N)c34)[nH]c12 [OSI-027] (partner 0.5 µM)
Outline: as §1

Cell Line | relative viability (IPA-3 + Luminespib; first compound 0.2 µM) | relative viability (IPA-3 + Luminespib; first compound 0.6325 µM) | relative viability (IPA-3 + Luminespib; first compound 2 µM) | relative viability (IPA-3 + Luminespib; first compound 6.325 µM) | relative viability (IPA-3 + Luminespib; first compound 20 µM) | relative viability (IPA-3 + Lapatinib; first compound 0.2 µM) | relative viability (IPA-3 + Lapatinib; first compound 0.6325 µM) | relative viability (IPA-3 + Lapatinib; first compound 2 µM) | relative viability (IPA-3 + Lapatinib; first compound 6.325 µM) | relative viability (IPA-3 + Lapatinib; first compound 20 µM) | relative viability (Doramapimod + Navitoclax; first compound 0.02 µM) | relative viability (Doramapimod + Navitoclax; first compound 0.06325 µM) | relative viability (Doramapimod + Navitoclax; first compound 0.2 µM) | relative viability (Doramapimod + Navitoclax; first compound 0.6325 µM) | relative viability (Doramapimod + Navitoclax; first compound 2 µM) | relative viability (RAF265 + OSI-027; first compound 0.01 µM) | relative viability (RAF265 + OSI-027; first compound 0.03162 µM) | relative viability (RAF265 + OSI-027; first compound 0.1 µM) | relative viability (RAF265 + OSI-027; first compound 0.3162 µM) | relative viability (RAF265 + OSI-027; first compound 1 µM)
NCI-H2009 | 1.06 | 1.04 | 1.07 | 0.941 | 1.06 | 1.2 | 0.899 | 0.832 | 0.853 | 0.577 | 1.25 | 1.18 | 1.2 | 1.29 | 1.19 | 0.581 | 0.414 | 0.328 | 0.365 | 0.318
HCC-44 | 1.12 | 0.995 | 1.21 | 0.947 | 1.25 | 0.995 | 1.02 | 1.05 | 0.883 | 1.03 | 1 | 0.986 | 0.986 | 1.14 | 0.979 | 0.735 | 0.479 | 0.636 | 0.449 | 0.477
COR-L23 | 0.866 | 0.627 | 0.725 | 0.643 | 0.48 | 1.09 | 0.985 | 1.01 | 1.02 | 0.988 | 1.1 | 0.989 | 1 | 1.07 | 1.02 | 0.843 | 0.723 | 0.501 | 0.278 | 0.168
EMC-BAC-2 | 1.13 | 1.04 | 1.2 | 1.2 | 1.21 | 0.905 | 0.92 | 0.88 | 0.95 | 0.992 | 1.18 | 1.17 | 1.16 | 1.25 | 0.99 | 0.375 | 0.342 | 0.219 | 0.232 | 0.134
LK-2 | 0.179 | 0.193 | 0.17 | 0.189 | 0.222 | 1.13 | 0.877 | 0.959 | 0.9 | 0.821 | 0.731 | 0.757 | 0.695 | 0.72 | 0.741 | 0.212 | 0.202 | 0.176 | 0.177 | 0.203
SW 1573 | 0.139 | 0.215 | 0.459 | 0.158 | 0.0643 | 1.17 | 1.09 | 1.03 | 1.06 | 1.06 | 1.11 | 0.83 | 1.05 | 0.78 | 0.789 | 0.697 | 0.521 | 0.418 | 0.347 | 0.249
NCI-H2405 | 0.722 | 0.599 | 0.688 | 0.666 | 0.762 | 1.15 | 1 | 0.921 | 1.17 | 1.16 | 0.901 | 0.831 | 0.812 | 1.33 | 0.804 | 0.601 | 0.626 | 0.621 | 0.611 | 0.366
NCI-H2087 | 0.169 | 0.14 | 0.183 | 0.197 | 0.167 | 0.832 | 0.987 | 0.982 | 1.06 | 0.811 | 0.955 | 0.98 | 0.933 | 1.1 | 0.888 | 0.653 | 0.426 | 0.426 | 0.193 | 0.334
NCI-H460 | 0.0346 | 0.0286 | 0.0329 | 0.0351 | 0.0331 |  | 0.807 | 1.1 | 0.889 | 1.19 | 1.12 | 1.01 | 1.14 | 1.13 | 1.01 | 0.696 | 0.627 | 0.416 | 0.222 | 0.0945
LOU-NH91 | 0.326 | 0.26 | 0.332 | 0.33 | 0.358 | 0.745 | 0.799 | 0.74 | 0.77 | 0.789 | 0.683 | 0.588 | 0.627 | 0.63 | 0.452 | 0.703 | 0.653 | 0.737 | 0.45 | 0.486
NCI-H1651 | 1.04 | 0.768 | 0.853 | 0.959 | 1.02 | 1.18 |  | 0.863 | 0.852 | 0.931 | 0.624 | 0.911 | 0.996 | 1.04 | 1.06 | 0.783 | 0.776 | 0.695 | 0.52 | 0.362

From the supplement of paper PMC10307832
